Read-outs that look alike come from different tables or passages of the source.
Tests used:
[1] = Hepatic microsomal stability, rat; format: in vitro ADME, rat (Sprague-Dawley)
Description: (§1) Hepatic microsmal assays were performed with compound 5114 in human and rat (Sprague-Dawley). Protein concentrations of 0.4 (human) and 0.2 mg/mL (rat) with an NADPH regenerating cofactor system (2.6 mM NADP+, 6.6 mM glucose-6-phosphate, 0.8 U/mL glucose-6-phosphate dehydrogenase, and 6.6 mM magnesium chloride) were used. A 100 μM 20% DMSO/80% acetonitrile working stock of each of the compounds was diluted 100 fold resulting in 1 μM compound/1% final organic reaction concentrations. Time points were removed at 0 and 60 minutes. At each time point, 100 μL of the incubation suspension was added to 200 μL of acetonitrile containing internal standard (tolbutamide), followed by centrifugation at 3,220 rcf for 10 minutes. Two hundred (200) μL of the resulting supernatants were removed, dried under nitrogen and reconstituted in 100 μL of 2 mM ammonium acetate, 0.1% formic acid in 50% methanol prior to analysis by LC/MS/MS. Testosterone and dexamethasone were used as reference compounds.

[2] = Hepatic microsomal stability, human; format: in vitro ADME
Description: as §1

[3] = PAMPA, 5 h, 10 μM, pH 7.4
Description: The target concentration in the assay was 10 μM, prepared by diluting (1000-fold) the 10 mM stock solutions in DMSO into PBS, pH 7.4. The final DMSO concentration was 0.1%. The 10 μM solutions were added, 300 μL, to wells in the donor plate. The receiver plate, which contained 200 μL of PBS, pH 7.4 per well, was placed in the donor plate and the assembly was incubated for 5 hours at ambient temperature. At the end of the incubation period the plates were separated and the compound concentrations in each solution were determined by LC/MS/MS. The assay was performed in triplicate.
C0 is the initial concentration in the donor well (μM)
CD(t) is the concentration in the donor well after incubation (μM)
CA(t) is the concentration in the acceptor well after incubation (μM)
VD is the volume in the donor well (0.3 mL)
VA is the volume in the acceptor well (0.2 mL)
CE is (CD(t)VD+CA(t)VA)/(VD+VA)
A is the filter area (0.3 cm2)
t is the incubation time (18,000 s).

different kinases = assay: Kinase activity screening by Millipore UK Ltd, percent kinase activity at 300 nM of compound (Table 31); format: biochemical
Description: Protocols for Kinase Activity Screening: Kinase screening was performed by Millipore UK Ltd. Kinase dilution buffer composition: 20 mM MOPS, 1 mM EDTA, 0.01% Brij-35, 5% Glycerol, 0.1% b-mercaptoethanol, 1 mg/mL BSA.

Caco-2 cells = assay: Inhibition of Caco-2 cells (MTS cell proliferation); format: cell-based; conditions: for inhibition at 0.4 µM / inhibition at 0.8 µM / inhibition at 1.6 µM / inhibition at 3.2 µM / inhibition at 6.25 µM / inhibition at 12.5 µM / inhibition at 25 µM / inhibition at 50 µM / inhibition at 100 µM / IC50: Homo sapiens; for inhibition at 0.4 µM: 0.400 μM; for inhibition at 0.4 µM / inhibition at 0.8 µM / inhibition at 1.6 µM / inhibition at 3.2 µM / inhibition at 6.25 µM / inhibition at 12.5 µM / inhibition at 25 µM / inhibition at 50 µM / inhibition at 100 µM: 72 hours; for inhibition at 0.8 µM: 0.800 μM; for inhibition at 1.6 µM: 1.600 μM; for inhibition at 3.2 µM: 3.200 μM; for inhibition at 6.25 µM: 6.250 μM; for inhibition at 12.5 µM: 12.500 μM
Description: Inhibition of Caco-2 Cells Cells: Caco-2 cells, ATCC Passage 33, Mycoplasma free. Medium: DMEM Medium (GIBCO Cat #11995073) supplemented with 10% fetal bovine serum (Hyclone Cat #SH30396.03). Seeding: 3,000 cells/well (100 μL) into 96-wells plate, incubated overnight at 37° C. in a humidified, 5% CO2 atmosphere. […] Fifty microliters (50 μL) of diluted compounds were added into each well. The final concentrations of the positive control and test compounds were shown in the graphs. The cells were incubated for 72 hours after addition of the test compounds. MTS: 15 uL of MTS solution (Promega Cat #G5430) was added into each well and incubated with cells for 4 hours at 37° C. in a humidified, 5% CO2 atmosphere. Measurement: Absorbance at 490 nm was measured using MD Spectramax Plus384 spectrophotometer. The regression curves were calculated by the GraphPad Prism 5 using “log(inhibitor) vs response—variable slope”. Calculation: % of inhibition=(ODzero ctrl−OD compound)/ODzero ctrl*100.

[4] = replicate 1, read-out: % of inhibition 1
[5] = replicate 2, read-out: % of inhibition 2

SMILES: C[C@@H]1C[C@H]2[C@@H]3CCC4=CC(=O)C=C[C@]4(C)[C@@]3(F)[C@@H](O)C[C@]2(C)[C@@]1(O)C(=O)CO [Dexamethasone]
- % remaining after incubation, Rat Microsomes ([1]; Sprague-Dawley, rat, microsomes, 1 h, 1 μM): 91%
- % remaining after incubation, Human Microsomes ([2]; human, microsomes, 1 h, 1 μM): 85%
- Mass Retention R [3]: 9%

SMILES: Nc1ccc2c(c1)CN(c1nccc(/C=C3\NC(=O)NC3=O)n1)CC2 [Example 64, (Z)-5-((2-(7-amino-3,4-dihydroisoquinolin-2(1H)-yl)pyrimidin-4-yl)methylene)imidazolidine-2,4-dione]
- Percent Kinase Activity of Enzyme CK1 (different kinases): 81%
- Percent Kinase Activity of Enzyme CK1g2 (different kinases): 75%
- Percent Kinase Activity of Enzyme CK2 (different kinases): 65%
- Percent Kinase Activity of Enzyme Pim-1 (different kinases): 83%
- Percent Kinase Activity of Enzyme Pim-2 (different kinases): 81%
- Percent Kinase Activity of Enzyme Pim-3 (different kinases): 97%

SMILES: NCC1CCN(c2nccc(/C=C3\NC(=O)NC3=O)n2)CC1 [Example 65, (Z)-5-((2-(4-(aminomethyl)piperidin-1-yl)pyrimidin-4-yl)methylene)imidazolidine-2,4-dione]
- Percent Kinase Activity of Enzyme CK1 (different kinases): 97%
- Percent Kinase Activity of Enzyme CK1g2 (different kinases): 96%
- Percent Kinase Activity of Enzyme CK2 (different kinases): 94%
- Percent Kinase Activity of Enzyme Pim-1 (different kinases): 92%
- Percent Kinase Activity of Enzyme Pim-2 (different kinases): 78%
- Percent Kinase Activity of Enzyme Pim-3 (different kinases): 76%

SMILES: Nc1cccc2c1CCN(c1nccc(/C=C3\NC(=O)NC3=O)n1)C2 [Example 66, (Z)-5-((2-(5-amino-3,4-dihydroisoquinolin-2(1H)-yl)pyrimidin-4-yl)methylene)imidazolidine-2,4-dione]
- Percent Kinase Activity of Enzyme CK1 (different kinases): 98%
- Percent Kinase Activity of Enzyme CK1g2 (different kinases): 77%
- Percent Kinase Activity of Enzyme CK2 (different kinases): 78%
- Percent Kinase Activity of Enzyme Pim-1 (different kinases): 91%
- Percent Kinase Activity of Enzyme Pim-2 (different kinases): 86%
- Percent Kinase Activity of Enzyme Pim-3 (different kinases): 96%

SMILES: CN(c1nccc(/C=C2\NC(=O)NC2=O)n1)[C@H]1CCCNC1 [Example 67, (S,Z)-5-((2-(methyl(piperidin-3-yl)amino)pyrimidin-4-yl)methylene)imidazolidine-2,4-dione]
- Percent Kinase Activity of Enzyme CK1 (different kinases): 104%
- Percent Kinase Activity of Enzyme CK1g2 (different kinases): 111%
- Percent Kinase Activity of Enzyme CK2 (different kinases): 94%
- Percent Kinase Activity of Enzyme Pim-1 (different kinases): 98%
- Percent Kinase Activity of Enzyme Pim-2 (different kinases): 99%
- Percent Kinase Activity of Enzyme Pim-3 (different kinases): 114%

SMILES: O=C1NC(=O)/C(=C/c2ccnc(N3CCC(CNCc4ccc5ccccc5n4)CC3)n2)N1 [Example 68, (Z)-5-((2-(4-(((quinolin-2-ylmethyl)amino)methyl)piperidin-1-yl)pyrimidin-4-yl)methylene)imidazolidine-2,4-dione]
- Percent Kinase Activity of Enzyme CK1 (different kinases): 97%
- Percent Kinase Activity of Enzyme CK1g2 (different kinases): 84%
- Percent Kinase Activity of Enzyme CK2 (different kinases): 109%
- Percent Kinase Activity of Enzyme Pim-1 (different kinases): 75%
- Percent Kinase Activity of Enzyme Pim-2 (different kinases): 69%
- Percent Kinase Activity of Enzyme Pim-3 (different kinases): 63%

SMILES: O=C1NC(=O)/C(=C/c2ccnc(N3CCC(CNCc4cccc(-c5ccsc5)n4)CC3)n2)N1 [Example 69, (Z)-5-((2-(4-((((6-(thiophen-3-yl)pyridin-2-yl)methyl)amino)methyl)piperidin-1-yl)pyrimidin-4-yl)methylene)imidazolidine-2,4-dione]
- Percent Kinase Activity of Enzyme CK1 (different kinases): 92%
- Percent Kinase Activity of Enzyme CK1g2 (different kinases): 76%
- Percent Kinase Activity of Enzyme CK2 (different kinases): 106%
- Percent Kinase Activity of Enzyme Pim-1 (different kinases): 46%
- Percent Kinase Activity of Enzyme Pim-2 (different kinases): 86%
- Percent Kinase Activity of Enzyme Pim-3 (different kinases): 59%

SMILES: CNC(=O)c1cc(Oc2ccc(NC(=O)Nc3ccc(Cl)c(C(F)(F)F)c3)cc2)ccn1 [Sorafenib]
- inhibition at 0.4 µM (Caco-2 cells; [4]): 0.049%
- inhibition at 0.4 µM (Caco-2 cells; [5]): 0.315%
- inhibition at 0.8 µM (Caco-2 cells; [4]): 9.97%
- inhibition at 0.8 µM (Caco-2 cells; [5]): 6.24%
- inhibition at 1.6 µM (Caco-2 cells; [4]): 14.3%
- inhibition at 1.6 µM (Caco-2 cells; [5]): 11.4%
- inhibition at 3.2 µM (Caco-2 cells; [4]): 17%
- inhibition at 3.2 µM (Caco-2 cells; [5]): 9.39%
- inhibition at 6.25 µM (Caco-2 cells; [4]): 19.9%
- inhibition at 6.25 µM (Caco-2 cells; [5]): 23.5%
- inhibition at 12.5 µM (Caco-2 cells; [4]): 76.8%
- inhibition at 12.5 µM (Caco-2 cells; [5]): 76.3%
- inhibition at 25 µM (Caco-2 cells; [4]): 100%
- inhibition at 25 µM (Caco-2 cells; [5]): 98.5%
- inhibition at 50 µM (Caco-2 cells; [4]): 102%
- inhibition at 50 µM (Caco-2 cells; [5]): 99%
- inhibition at 100 µM (Caco-2 cells; [4]): 84.1%
- inhibition at 100 µM (Caco-2 cells; [5]): 96.7%
- IC50 (Caco-2 cells; Table 18, read-out: Caco-2* 50% inhibition concentration): 8.78 µM
- IC50 (Caco-2 cells; Table 26, 72 hours, read-out: 50% viability conc.): 8.77 µM
- IC50 (Caco-2 cells; Table 26, 72 hours, read-out: IC50): 9.37 µM
- Maximal inhibition % (Caco-2 cells; Table 26, 72 hours): 100%

SMILES: C[C@]12CC[C@H]3[C@@H](CCC4=CC(=O)CC[C@@]43C)[C@@H]1CC[C@@H]2O [Testosterone]
- % remaining after incubation, Rat Microsomes ([1]; 1 μM compound, 0.2 mg/mL protein, NADPH regenerating system, 60 minutes): 0.6%
- % remaining after incubation, Human Microsomes ([2]; 1 μM compound, 0.4 mg/mL protein, NADPH regenerating system, 60 minutes): 42%

From patent US9073903B2, “Imidazole-2,4-dione inhibitors of casein kinase 1” (Jasco Pharmaceuticals, LLC, priority 2010, dated 2015)
